Measured values: patent US20260083704A1, “LXR MODULATORS WITH BICYCLIC CORE MOIETY FOR TREATING DYSLIPIDEMIAS” (OrsoBio, Inc., priority 2022, published 2026)

Tests used:
LXRβ = molecular target: T1, LXRβ (Homo sapiens, UniProt P55055); experiment: LXR Gal4 reporter transient transfection assay (mammalian two-hybrid, HEK293), LXRβ; type: cell-based; design: LXRβ (amino acids 156-461); expressed in transfected cells; host or cells: HEK293; conditions: full length (FL) LXRβ, HEK293; read-out: FL-M2H Gal4β
T1 sequence (P55055 1-460): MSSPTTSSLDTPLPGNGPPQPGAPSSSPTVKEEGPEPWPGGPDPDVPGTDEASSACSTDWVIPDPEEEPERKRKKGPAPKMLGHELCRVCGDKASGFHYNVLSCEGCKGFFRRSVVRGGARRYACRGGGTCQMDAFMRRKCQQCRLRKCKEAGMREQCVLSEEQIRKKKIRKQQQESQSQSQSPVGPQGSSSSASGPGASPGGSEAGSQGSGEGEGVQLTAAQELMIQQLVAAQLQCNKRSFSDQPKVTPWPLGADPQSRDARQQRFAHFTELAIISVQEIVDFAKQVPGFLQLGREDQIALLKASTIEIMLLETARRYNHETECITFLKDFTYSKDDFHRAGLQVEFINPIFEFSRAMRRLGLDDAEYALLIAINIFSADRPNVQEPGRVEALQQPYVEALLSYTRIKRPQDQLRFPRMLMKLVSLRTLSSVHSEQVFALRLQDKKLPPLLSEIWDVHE
In short: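 HEK293 cells transiently co-transfected with full-length or LBD LXRα/LXRβ fused to NFkB activation domain, GAL4-DBD-fused SRC1 or NCoR cofactor domain, GAL4-responsive firefly luciferase reporter and Renilla control. Compound added 4 h post-transfection (≤0.2% DMSO), incubated 16 h; firefly and Renilla luminescence read sequentially.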

[1] = molecular target: T2, GST-LXRβ ligand-binding domain (Homo sapiens, UniProt P55055); experiment: TR-FRETβ activity assay (NCoA3 coactivator peptide recruitment); type: biochemical; conditions: 1 μM 24(S)-25-epoxycholesterol prestimulation
T2 construct: amino acids 156-461; NP009052; made in house; host or cells: E. coli
T2 sequence (P55055 156-460 limits assumed): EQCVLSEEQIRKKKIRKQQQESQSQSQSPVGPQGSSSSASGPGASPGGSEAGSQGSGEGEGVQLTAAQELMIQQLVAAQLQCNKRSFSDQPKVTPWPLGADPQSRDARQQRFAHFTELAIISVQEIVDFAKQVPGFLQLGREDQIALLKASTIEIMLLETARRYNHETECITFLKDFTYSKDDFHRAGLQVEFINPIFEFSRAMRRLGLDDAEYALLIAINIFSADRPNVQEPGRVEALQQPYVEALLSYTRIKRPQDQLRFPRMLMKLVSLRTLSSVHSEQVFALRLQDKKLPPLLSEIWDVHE
In short: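 E. coli-expressed GST-LXRβ LBD (aa 156-461, 76 nM) with biotinylated NCoA3 peptide (400 nM) in Tris/HCl pH 6.8 containing 1 μM 24(S)-25-epoxycholesterol agonist. Compounds tested at 50 μM down to 0.002 μM in triplicate. TR-FRET (Tb cryptate/XL665, ex 340, em 615/665 nm) read after 1 h at 4° C.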

**Q.** For `Cc1ccc(S(=O)(=O)n2c(-c3cccc(-c4ccc(C(=O)O)cc4Cl)c3)c(-c3ccsc3C#N)c3cc(F)ccc32)cc1` [3/48], which EC50 (LXRβ) is on record?
**A.** Its EC50 is under 100 nM.

**Q.** What about the EC50 [1] of the same compound?
**A.** The EC50 was 100 to 1000 nM.

**Q.** How did the EC50 (LXRβ) turn out when `O=C(O)c1ccc(-c2cccc(-c3c(-c4ccccc4C4COC4)c4cc(F)ccc4n3S(=O)(=O)c3ccc(C(F)F)cc3)c2)c(Cl)c1` [3/59] was run?
**A.** Its EC50 is under 100 nM.

**Q.** And the EC50 [1]?
**A.** The EC50 was under 100 nM.

**Q.** For `Cc1ccc(S(=O)(=O)n2c(-c3cccc(C45CCC(C(=O)O)(CC4)CC5)c3)c(-c3ccsc3C#N)c3cc(F)ccc32)cc1` [3/64], which EC50 (LXRβ) is on record?
**A.** Its EC50 is under 100 nM.

**Q.** And the EC50 [1]?
**A.** The EC50 was 100 to 1000 nM.

**Q.** Which EC50 (LXRβ) does the source give for `N#Cc1cccc(C#N)c1-c1c(-c2cccc(-c3c(F)cc(CC(=O)O)cc3F)c2)n(S(=O)(=O)c2ccc(C(F)F)cc2)c2ccc(F)cc12` [3/73] here?
**A.** The EC50 was under 100 nM.

**Q.** And the EC50 [1]?
**A.** Its EC50 is under 100 nM.

**Q.** For `Cc1ccc(S(=O)(=O)n2c(-c3cccc(-c4ccc(C(=O)O)cc4)c3)c(-c3ccsc3C#N)c3cc(F)ccc32)cc1` [5/3], which EC50 (LXRβ) is on record?
**A.** The EC50 was under 100 nM.

**Q.** And the EC50 [1]?
**A.** Its EC50 is 100 to 1000 nM.

**Q.** For `CC(=O)NS(=O)(=O)c1ccc(-c2cccc(-c3c(-c4c(C#N)cccc4C#N)c4cc(F)ccc4n3S(=O)(=O)c3ccc(C(F)F)cc3)c2)c(Cl)c1` [8/8], which EC50 (LXRβ) is on record?
**A.** Its EC50 is under 100 nM.

**Q.** And the EC50 [1]?
**A.** The EC50 was under 100 nM.

**Q.** For `N#Cc1cccc(C#N)c1-c1c(-c2cccc(-c3ccc(C(=O)NCCS(=O)(=O)O)cc3Cl)c2)n(S(=O)(=O)c2ccc(C(F)F)cc2)c2ccc(F)cc12` [10/1], which EC50 (LXRβ) is on record?
**A.** Its EC50 is under 100 nM.

**Q.** And the EC50 [1]?
**A.** The EC50 was under 100 nM.

**Q.** Which EC50 (LXRβ) does the source give for `CN(CCS(=O)(=O)O)C(=O)c1ccc(-c2cccc(-c3c(-c4c(C#N)cccc4C#N)c4cc(F)ccc4n3S(=O)(=O)c3ccc(C(F)F)cc3)c2)c(Cl)c1` [10/2] here?
**A.** Its EC50 is under 100 nM.

**Q.** What about the EC50 [1] of the same compound?
**A.** Its EC50 is under 100 nM.

**Q.** How did the EC50 (LXRβ) turn out when `N#Cc1nccnc1-c1c(-c2cccc(-c3cc(F)c(C(=O)O)cc3Cl)c2)n(S(=O)(=O)c2ccc(C(F)F)cc2)c2ccc(F)cc12` [11/11] was run?
**A.** The EC50 was under 100 nM.

**Q.** What about the EC50 [1] of the same compound?
**A.** Its EC50 is under 100 nM.

**Q.** Which results are given for `N#Cc1cccc(C#N)c1-c1c(-c2cccc(-c3ccc(C(=O)O)cc3Cl)c2)n(S(=O)(=O)c2ccc(C(F)F)cc2)c2ccc(F)cc12` [11/12]?
**A.** EC50 (LXRβ): < 100 nM; EC50 [1]: < 100 nM

**Q.** Which results are given for `O=C(O)c1ccc(-c2cccc(-c3c(-c4c(Cl)cccc4Cl)c4cc(F)ccc4n3S(=O)(=O)c3ccc(C(F)F)cc3)c2)c(Cl)c1` [11/13]?
**A.** EC50 (LXRβ): < 100 nM; EC50 [1]: < 100 nM

**Q.** How did the EC50 (LXRβ) turn out when `N#Cc1sccc1-c1c(-c2cccc(-c3ccc(C(=O)O)cc3Cl)c2)n(S(=O)(=O)c2ccc(C(F)(F)F)nc2)c2ccc(F)cc12` [11/16] was run?
**A.** The EC50 was under 100 nM.

**Q.** And the EC50 [1]?
**A.** Its EC50 is 100 to 1000 nM.

**Q.** With `N#Cc1sccc1-c1c(-c2cccc(-c3ccc(C(=O)O)cc3Cl)c2)n(S(=O)(=O)c2ccc(C(F)F)cc2)c2ccc(F)cc12` [11/17] as the compound, how does the EC50 (LXRβ) read?
**A.** Its EC50 is under 100 nM.

**Q.** What about the EC50 [1] of the same compound?
**A.** The EC50 was under 100 nM.

**Q.** Which results are given for `O=C(O)c1ccc(-c2cccc(-c3c(-c4ncccc4C(F)(F)F)c4cc(F)ccc4n3S(=O)(=O)c3ccc(C(F)F)cc3)c2)c(Cl)c1` [11/23]?
**A.** EC50 (LXRβ): < 100 nM; EC50 [1]: < 100 nM

**Q.** Which EC50 (LXRβ) does the source give for `N#Cc1cccnc1-c1c(-c2cccc(-c3ccc(C(=O)O)cc3Cl)c2)n(S(=O)(=O)c2ccc(C(F)F)cc2)c2ccc(F)cc12` [11/26] here?
**A.** The EC50 was under 100 nM.

**Q.** What about the EC50 [1] of the same compound?
**A.** Its EC50 is under 100 nM.

**Q.** How did the EC50 (LXRβ) turn out when `COc1c(C(=O)O)ccc(-c2cccc(-c3c(-c4ccccc4C#N)c4cc(F)ccc4n3S(=O)(=O)c3ccc(C(F)F)cc3)c2)c1Cl` [11/27] was run?
**A.** The EC50 was under 100 nM.

**Q.** And the EC50 [1]?
**A.** The EC50 was under 100 nM.

**Q.** What does the source list for `N#Cc1ccccc1-c1c(-c2cccc(-c3ccc(C(=O)O)cc3Cl)c2)n(S(=O)(=O)c2ccc(C(F)F)cc2)c2ccc(F)cc12` [11/33]?
**A.** EC50 (LXRβ): < 100 nM; EC50 [1]: < 100 nM

**Q.** What does the source list for `N#Cc1cccc(C#N)c1-c1c(-c2cccc(-c3ccc(C(=O)O)cc3Cl)c2)n(S(=O)(=O)c2ccc(C(F)(F)F)nc2)c2ccc(F)cc12` [11/37]?
**A.** EC50 (LXRβ): < 100 nM; EC50 [1]: < 100 nM

**Q.** With `N#Cc1ccccc1-c1c(-c2cccc(-c3ccc(C(=O)O)cc3Cl)c2)n(S(=O)(=O)c2ccc(C(F)F)cc2)c2cnccc12` [11/49] as the compound, how does the EC50 (LXRβ) read?
**A.** Its EC50 is under 100 nM.

**Q.** And the EC50 [1]?
**A.** Its EC50 is under 100 nM.

**Q.** For `N#Cc1cccc(C#N)c1-c1c(-c2cccc(-c3ccc(C(=O)O)cc3F)c2)n(S(=O)(=O)c2ccc(C(F)F)cc2)c2ccc(F)cc12` [11/51], which EC50 (LXRβ) is on record?
**A.** The EC50 was under 100 nM.

**Q.** What about the EC50 [1] of the same compound?
**A.** The EC50 was under 100 nM.

**Q.** Which results are given for `N#Cc1cccc(C#N)c1-c1c(-c2cccc(-c3c(F)cc(C(=O)O)cc3F)c2)n(S(=O)(=O)c2ccc(C(F)F)cc2)c2ccc(F)cc12` [11/53]?
**A.** EC50 (LXRβ): < 100 nM; EC50 [1]: < 100 nM

**Q.** With `N#Cc1cccc(C#N)c1-c1c(-c2cccc([C@H]3CC[C@H](C(=O)O)CC3)c2)n(S(=O)(=O)c2ccc(C(F)F)cc2)c2ccc(F)cc12` [11/62] as the compound, how does the EC50 (LXRβ) read?
**A.** Its EC50 is under 100 nM.

**Q.** What about the EC50 [1] of the same compound?
**A.** The EC50 was 100 to 1000 nM.

**Q.** `N#Cc1cccc(C#N)c1-c1c(-c2cccc(-c3ccc(C(=O)O)cc3Cl)c2)n(S(=O)(=O)C2CCC(F)(F)CC2)c2ccc(F)cc12` [11/63] was tested. Which EC50 (LXRβ) did it give?
**A.** Its EC50 is under 100 nM.

**Q.** What about the EC50 [1] of the same compound?
**A.** The EC50 was 100 to 1000 nM.

**Q.** With `N#Cc1cccc(C#N)c1-c1c(-c2cccc(-c3cc(F)c(C(=O)O)cc3Cl)c2)n(S(=O)(=O)c2ccc(C(F)F)cc2)c2ccc(F)cc12` [11/65] as the compound, how does the EC50 (LXRβ) read?
**A.** The EC50 was under 100 nM.

**Q.** What about the EC50 [1] of the same compound?
**A.** The EC50 was under 100 nM.

**Q.** How did the EC50 (LXRβ) turn out when `Cc1ccc(S(=O)(=O)n2c(-c3cccc(-c4ccc(C(=O)O)cc4)c3)c(-c3ccsc3C#N)c3cc(F)ccc32)cc1C` [23/2] was run?
**A.** The EC50 was under 100 nM.

**Q.** And the EC50 [1]?
**A.** The EC50 was 100 to 1000 nM.

**Q.** `CS(=O)(=O)NC(=O)c1ccc(-c2cccc(-c3c(-c4c(C#N)cccc4C#N)c4cc(F)ccc4n3S(=O)(=O)c3ccc(C(F)F)cc3)c2)c(Cl)c1` [32/5] was tested. Which EC50 (LXRβ) did it give?
**A.** The EC50 was under 100 nM.

**Q.** And the EC50 [1]?
**A.** Its EC50 is under 100 nM.

**Q.** `N#Cc1cccc(C#N)c1-c1c(-c2cccc(-c3ccc(C(=O)NCC(=O)O)cc3Cl)c2)n(S(=O)(=O)c2ccc(C(F)F)cc2)c2ccc(F)cc12` [Compound 21/3] was tested. Which EC50 (LXRβ) did it give?
**A.** The EC50 was under 100 nM.

**Q.** And the EC50 [1]?
**A.** The EC50 was under 100 nM.
